Assay results: US7947661B2, “Compounds for the treatment of marihuana dependence, withdrawal, and usage” (priority 2004, dated 2011)

Columns and labels:
[1] = cited from earlier work
[2] = tested on: cocaine-dependent subjects; assay: Weekly marihuana use from daily diaries, citicoline vs placebo for 8 weeks; format: in vivo, human; settings: citicoline treatment weeks 3-10, not dependent on cannabis
Description: FIG. 1 is a graph of a time course of weekly marihuana use in citicoline- and placebo-treated cocaine-dependent subjects. Subjects were treated with either citicoline or placebo for 8 weeks and then asked to keep track of their drug use patterns via a daily diary. Follow up weeks were conducted under a no drug condition.
Compared to placebo treatment, marihuana use was reduced during citicoline treatment (weeks 3-10) as reported using the daily diaries. […] There is a group difference at baseline; this difference occurred because subjects were not matched for marihuana use in this study, and these subjects were not dependent on cannabis.

[3] = cited from earlier work; remark: listed apart in the source
cocaine dependent person = assay: Wrist accelerometer (ActiWatch) sleep wake activity and marihuana cigarettes in a representative subject; format: in vivo, human; settings: 500 mg twice daily citicoline, days 10-14 vs baseline
Description: FIG. 2 is a graph of activity of a representative cocaine dependent person two weeks prior to (Baseline) and two weeks after (Citicoline) treatment with citicoline. […] Marihuana cigarettes are depicted by the arrows. Each strip recording is a 24 hour period of consecutive days. Activity was determined by use of an accelerometer worn on the subject'[…] Score). Data in FIG. 2 also show a decrease in the number of marihuana cigarettes smoked and a more normalized, diurnal sleep pattern after treatment with citicoline. Subjects were given either placebo or 500 mg, twice daily of citicoline. […] The subject's binge use of marihuana (arrows on second day) is clearly defined. The bottom 4 tracings of FIG. 2 show the same subject on days 10-14 of citicoline treatment. […] This pattern continued throughout the 8 weeks of treatment for this subject.

[4] = cited from earlier work; remark: listed apart in the source

For `C[N+](C)(C)CCOP(=O)(O)OP(=O)([O-])OC[C@H]1O[C@@H](n2ccc(N)nc2=O)[C@H](O)[C@@H]1O` [CDP-choline, cytidine 5′-diphosphocholine], the “conversion into circulating metabolites” value ([1]; administered either orally or intravenously) is listed as “rapidly converted into the two major circulating metabolites, choline and cytidine”, the “CDP-choline and/or its metabolites absorbed” value ([1]; orally administered) is listed as “more than 99%” and the excreted in feces ([1]; orally administered) is listed as “less than 1%”. The excretion via lung ([1]; share of dose) was 12.9%, the excretion via urine ([1]; share of dose) was 2.4% and the “rest of the dose metabolized and retained in tissues” value ([1]; share of dose) was 83.9%. For the same compound, the “marihuana use (cigarettes per week, daily diaries) compared to placebo” value [2] was “reduced”, the reported overdoses ([3]; in vivo) was “no reported cases of overdoses” and the “toxicity symptoms on ingestion of large amounts” value ([3]; preclinical studies) was “common cholinergic symptoms (salivation, lacrimation, urination, defecation, and vomiting)”. For the same compound, the “number of marihuana cigarettes smoked” value (cocaine dependent person) was “decrease”, the “sleep wake profile (accelerometer activity)” value (cocaine dependent person; continued throughout 8 weeks) was “more normalized diurnal pattern of sleeping at night and became more active during the day” and the tolerability in mammals [4] was “well tolerated”.
In the case of `CN(CC(=O)O)C(=N)N` [Creatine, creatine], the tolerability in humans [4] is listed as “well tolerated at relatively high doses”.
For `CC(=O)OC[C@H]1O[C@@H](n2ccc(=O)[nH]c2=O)[C@H](OC(C)=O)[C@@H]1OC(C)=O` [triacetyl uridine], the tolerability in mammals [4] is listed as “well tolerated”.
For `O=c1ccn([C@@H]2O[C@H](CO)[C@@H](O)[C@H]2O)c(=O)[nH]1` [uridine], the tolerability in humans [4] is listed as “well tolerated” and the tolerability in mammals [4] is listed as “well tolerated”.
